# Key:
# [1] = target: T1, Hepatocyte nuclear factor 4-alpha (Homo sapiens, UniProt P41235); assay: Displacement of radiolabeled methyl-4-[5,6,7,8-tetrahydro-5,5,8,8-tetramethyl-3-ethyloxy-2-naphthalenyl]benzoyl benzoate from HNF4alpha (unknown origin)
# T1 sequence (P41235 whole entry): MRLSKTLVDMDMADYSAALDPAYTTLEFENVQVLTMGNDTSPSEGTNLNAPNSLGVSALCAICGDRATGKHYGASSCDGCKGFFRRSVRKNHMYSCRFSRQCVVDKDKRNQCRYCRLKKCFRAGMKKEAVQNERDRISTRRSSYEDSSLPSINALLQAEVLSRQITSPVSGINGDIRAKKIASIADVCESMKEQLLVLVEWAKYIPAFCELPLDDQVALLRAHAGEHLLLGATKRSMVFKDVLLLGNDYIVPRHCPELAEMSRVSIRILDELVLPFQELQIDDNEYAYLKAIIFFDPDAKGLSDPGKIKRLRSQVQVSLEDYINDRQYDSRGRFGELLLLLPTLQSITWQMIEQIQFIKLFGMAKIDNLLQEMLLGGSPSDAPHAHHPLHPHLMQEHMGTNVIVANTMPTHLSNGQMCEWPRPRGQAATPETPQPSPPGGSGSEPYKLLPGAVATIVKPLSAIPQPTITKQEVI
# [2] = target: T2, Hepatocyte nuclear factor 4-alpha (Rattus norvegicus) (UniProt P22449); assay: Agonist activity at rat HNF4alpha1 expressed in African green monkey CV1 cells incubated for 24 hrs by firefly luciferase reporter gene assay relative to LGOI00695; assay type: functional, cell-based; conditions: CV-1
# T2 sequence (whole entry): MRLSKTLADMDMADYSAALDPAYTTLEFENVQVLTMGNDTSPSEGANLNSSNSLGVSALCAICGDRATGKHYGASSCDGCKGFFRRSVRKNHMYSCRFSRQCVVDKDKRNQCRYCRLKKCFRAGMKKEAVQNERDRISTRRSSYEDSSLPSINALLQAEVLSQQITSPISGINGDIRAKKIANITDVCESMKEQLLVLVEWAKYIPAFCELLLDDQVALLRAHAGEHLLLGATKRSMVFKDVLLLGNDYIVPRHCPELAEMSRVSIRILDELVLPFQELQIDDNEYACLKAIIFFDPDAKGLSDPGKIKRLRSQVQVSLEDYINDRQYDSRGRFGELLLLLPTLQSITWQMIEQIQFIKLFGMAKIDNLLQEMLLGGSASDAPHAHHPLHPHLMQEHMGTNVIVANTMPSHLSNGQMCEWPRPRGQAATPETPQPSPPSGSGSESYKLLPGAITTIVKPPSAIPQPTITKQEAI
# [3] = target: T3, Hepatocyte nuclear factor 4-alpha (Rattus norvegicus, UniProt P22449); assay: Agonist activity at rat HNF4alpha1 expressed in African green monkey CV1 cells incubated for 24 hrs by firefly luciferase reporter gene assay; assay type: functional, cell-based, CV-1
# T3 sequence (P22449 whole entry): T2 sequence (whole entry)
# [4] = target: T2, Hepatocyte nuclear factor 4-alpha (Rattus norvegicus); assay: Antagonist activity against rat HNF4alpha1 expressed in African green monkey CV1 cells assessed as inhibition of LGOI00695-induced receptor activation incubated for 24 hrs by firefly luciferase reporter gene assay relative to control; assay type: functional, cell-based; conditions: CV-1
# [5] = target: T3, Hepatocyte nuclear factor 4-alpha; assay: Antagonist activity against rat HNF4alpha1 expressed in African green monkey CV1 cells assessed as inhibition of LGOI00695-induced receptor activation incubated for 24 hrs by firefly luciferase reporter gene assay; assay type: functional, cell-based, CV-1
Compound,Ki [1] [nM],Efficacy [2] [%],EC50 [3] [nM],Efficacy [4] [%],IC50 [5] [nM]
COC(=O)c1ccc([C@H]2Nc3ccccc3[C@H]3OCCC[C@@H]23)cc1 (relative stereo),234,165,426,,
O=C(O)Cc1ccc([C@H]2Nc3ccccc3[C@H]3OCCC[C@@H]23)cc1 (relative stereo),219,134,649,,
Cc1cc2c(cc1C)[C@H]1OCCC[C@H]1[C@@H](c1ccc(C(=O)O)cc1)N2 (relative stereo),135,60,1730,,
O=C(O)c1ccc(C2Nc3ccc4ccccc4c3[C@H]3OCCC[C@@H]23)cc1 (relative stereo),2170,,,69,300
O=C(O)c1ccc(C2Nc3ccc4ccccc4c3[C@H]3OCC[C@@H]23)cc1 (relative stereo),1080,42,778,,

# Source: ChEMBL document CHEMBL3714753, “Substituted tetrahydroquinolines, phenylacetic acids and benzoic acids as hepatocyte nuclear factor 4 (hnf-4 ) modulator compounds” (2005)
